What was measured:
[1] = molecular target: T1, Human HDAC5 (Homo sapiens, UniProt Q9UQL6); assay: HDAC5 biochemical assay, class IIa-specific substrate; conditions: read-out: HDAC Isoform IC50 (nM) 5
T1 construct: full length with C-terminal His tag, MW=51.1 kDa; His (C); host or cells: baculovirus expression system
How it was run: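 Full-length C-terminal His-tagged HDAC5 from baculovirus (0.05 ng/ul) incubated 30 min at room temperature with 50 μM Boc-Lys(trifluoroacetyl)-AMC and compound, Tris pH 8.0 buffer with BSA, 1% DMSO. Developer then releases AMC; fluorescence 360/460 nm.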

[2] = molecular target: T2, Human HDAC7 (Homo sapiens, UniProt Q8WUI4); assay: HDAC7 biochemical assay, class IIa-specific substrate; conditions: read-out: HDAC Isoform IC50 (nM) 7
T2 construct: (a.a. 518-end) with N-terminal GST tag; GST (N); host or cells: baculovirus expression system
T2 sequence (Q8WUI4 518-952 limits assumed): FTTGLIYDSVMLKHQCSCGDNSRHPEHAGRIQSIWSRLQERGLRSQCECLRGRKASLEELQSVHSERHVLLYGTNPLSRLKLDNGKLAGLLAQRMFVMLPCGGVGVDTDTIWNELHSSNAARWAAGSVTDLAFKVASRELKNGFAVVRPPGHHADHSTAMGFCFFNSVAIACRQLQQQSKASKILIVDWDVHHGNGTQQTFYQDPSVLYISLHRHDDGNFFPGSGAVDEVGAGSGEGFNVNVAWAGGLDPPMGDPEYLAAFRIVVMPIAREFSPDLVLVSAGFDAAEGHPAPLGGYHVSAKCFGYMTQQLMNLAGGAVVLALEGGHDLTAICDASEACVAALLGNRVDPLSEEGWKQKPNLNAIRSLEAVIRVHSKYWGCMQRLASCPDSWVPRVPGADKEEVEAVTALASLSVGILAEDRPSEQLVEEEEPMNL
How it was run: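 GST-tagged HDAC7 (a.a. 518-end, baculovirus-expressed) at 0.001 ng/ul with 50 μM Boc-Lys(trifluoroacetyl)-AMC substrate, 30 min at room temperature in pH 8.0 Tris buffer with BSA, 1% DMSO final. Developer then releases AMC; fluorescence read at 360/460 nm.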

[3] = molecular target: T3, Complex of human HDAC3 and human NCOR2 (Homo sapiens, UniProt O15379); assay: HDAC3 biochemical assay, AMC-labeled peptide substrate; conditions: read-out: HDAC Isoform IC50 (nM) 3
T3 construct: full length with C-terminal His tag, MW=49.7 kDa; His (C); host or cells: baculovirus expression system (co-expressed)
Protocol: (§1) Activity against all zinc-dependent HDACs 1 to 11 was assessed by using an acetylated AMC-labeled peptide substrate. The substrate RHKK(Ac)AMC was used for HDAC1, HDAC2, HDAC3, HDAC6 and HDAC10; the substrate used for HDAC8 was RHK(Ac)K(Ac)AMC. Activity against the class IIa HDACs (HDAC4, 5, 7, 9) and HDAC11 was determined using a class IIa-specific substrate, BOC-Lys(trifluoroacetyl)-AMC (“Trifluoroacetyl Lysine”; see Lahm et al, 2007, PNAS, 104, 17335-17340). All assays were based on the AMC-labeled substrate and developer combination.
(§2) The protocol involved a two-step reaction: first, the substrate with the acetylated lysine side chain is incubated with a sample containing HDAC activity, to produce the deacetylated products, which are then digested in the second step by the addition of developer to produce the fluorescent signal proportional to the amount of deacetylated substrates.
Complex of human HDAC3 (GenBank Accession No. NM_003883), full length with C-terminal His tag, MW=49.7 kDa, and human NCOR2 (amino acid 395-489) (GenBank Accession No. NM_006312), N-terminal GST tag, MW=37.6 kDa, co-expressed in baculovirus expression system.
(§3) Assay Buffer: 50 mM Tris-HCl, pH8.0, 137 mM NaCl, 2.7 mM KCl, 1 mM MgC2. Before use, 1 mg/mL BSA and DMSO are added.
HDAC3: 0.1 ng/ul HDAC3 and 50 μM HDAC substrate are in the reaction buffer with 1% DMSO final. Incubate for 1 hour at 30° C.
(§4) Stage 1: Deacetylation of substrate by incubation of HDAC enzymes with compounds
(§5) Stage 2: Development by addition of Developer to digest the deacetylated substrate, and generate the fluorescent colour; Detection: 360/460 Ex/Em

[4] = molecular target: T4, Human HDAC2 (Homo sapiens, UniProt Q92769); assay: HDAC2 biochemical assay, AMC-labeled peptide substrate; conditions: read-out: HDAC Isoform IC50 (nM) 2
T4 construct: full length with C-terminal GST-tag; GST (C); host or cells: baculovirus expression system
Protocol: as §1, §2
Human HDAC2 (GenBank Accession No. NM_001527), full length with C-terminal GST-tag, MW=82.9 kDa, expressed inbaculovirus expression system.
as §3
HDAC2: 0.07 ng/ul HDAC2 and 50 μM HDAC substrate are in the reaction buffer with 1% DMSO final. Incubate for 1 hour at 30° C.
as §4, §5

[5] = molecular target: T5, Human HDAC11 (Homo sapiens, UniProt Q96DB2); assay: HDAC11 biochemical assay, class IIa-specific substrate; conditions: read-out: HDAC Isoform IC50 (nM) 11
T5 construct: Human HDAC11 (full length); His (N); host or cells: baculovirus expression system
T5 sequence (Q96DB2 1-347): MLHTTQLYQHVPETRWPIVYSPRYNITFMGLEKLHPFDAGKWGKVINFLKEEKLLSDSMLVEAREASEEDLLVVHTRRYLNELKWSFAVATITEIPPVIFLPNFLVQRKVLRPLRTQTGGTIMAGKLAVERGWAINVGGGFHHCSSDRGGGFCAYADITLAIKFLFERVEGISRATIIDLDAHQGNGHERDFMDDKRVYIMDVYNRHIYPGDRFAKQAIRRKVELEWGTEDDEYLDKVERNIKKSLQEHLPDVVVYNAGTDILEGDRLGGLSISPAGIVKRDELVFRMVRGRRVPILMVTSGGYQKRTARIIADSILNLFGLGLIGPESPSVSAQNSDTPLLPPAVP
Protocol: as §1, §2
Human HDAC11 (full length) (GenBank Accession No. NM_024827) with N-terminal His tag, MW=42.9 kDa, expressed in baculovirus expression system.
as §3
HDAC11: 5 ng/ul HDAC11 and 50 μMHDAC substrate are in the reaction buffer with 1% DMSO final. Incubate for 30 minutes at 30° C.
as §4, §5

T4 sequence (Q92769 whole entry, canonical isoform): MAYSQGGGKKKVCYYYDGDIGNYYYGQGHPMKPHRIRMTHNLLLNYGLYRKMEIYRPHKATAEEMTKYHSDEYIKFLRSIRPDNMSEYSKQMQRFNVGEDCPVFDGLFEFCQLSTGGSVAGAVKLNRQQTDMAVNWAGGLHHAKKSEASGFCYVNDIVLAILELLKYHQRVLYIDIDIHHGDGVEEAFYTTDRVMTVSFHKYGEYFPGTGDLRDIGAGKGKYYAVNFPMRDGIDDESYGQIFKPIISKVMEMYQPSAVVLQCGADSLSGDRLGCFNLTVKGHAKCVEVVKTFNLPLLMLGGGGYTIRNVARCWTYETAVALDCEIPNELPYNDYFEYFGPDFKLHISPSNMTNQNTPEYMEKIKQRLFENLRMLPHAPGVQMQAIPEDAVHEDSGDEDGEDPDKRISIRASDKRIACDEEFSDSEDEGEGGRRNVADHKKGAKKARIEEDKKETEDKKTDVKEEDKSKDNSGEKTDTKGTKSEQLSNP
T3 sequence (O15379 whole entry, canonical isoform): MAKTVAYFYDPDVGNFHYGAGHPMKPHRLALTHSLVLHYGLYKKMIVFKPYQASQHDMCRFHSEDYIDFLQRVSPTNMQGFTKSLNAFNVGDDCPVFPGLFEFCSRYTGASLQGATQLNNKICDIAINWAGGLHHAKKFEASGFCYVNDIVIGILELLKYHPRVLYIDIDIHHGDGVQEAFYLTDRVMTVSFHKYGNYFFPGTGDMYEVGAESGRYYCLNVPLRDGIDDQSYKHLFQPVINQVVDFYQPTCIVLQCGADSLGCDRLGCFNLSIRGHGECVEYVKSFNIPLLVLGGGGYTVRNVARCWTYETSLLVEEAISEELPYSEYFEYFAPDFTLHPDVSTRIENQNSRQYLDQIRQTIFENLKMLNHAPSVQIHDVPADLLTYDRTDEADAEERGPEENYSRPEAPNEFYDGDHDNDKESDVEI
T3 sequence (Q9Y618 395-489 partner limits assumed): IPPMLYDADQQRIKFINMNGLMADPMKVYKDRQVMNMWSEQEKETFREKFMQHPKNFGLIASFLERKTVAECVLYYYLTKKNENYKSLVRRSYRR
T1 sequence (Q9UQL6 656-1122 limits assumed): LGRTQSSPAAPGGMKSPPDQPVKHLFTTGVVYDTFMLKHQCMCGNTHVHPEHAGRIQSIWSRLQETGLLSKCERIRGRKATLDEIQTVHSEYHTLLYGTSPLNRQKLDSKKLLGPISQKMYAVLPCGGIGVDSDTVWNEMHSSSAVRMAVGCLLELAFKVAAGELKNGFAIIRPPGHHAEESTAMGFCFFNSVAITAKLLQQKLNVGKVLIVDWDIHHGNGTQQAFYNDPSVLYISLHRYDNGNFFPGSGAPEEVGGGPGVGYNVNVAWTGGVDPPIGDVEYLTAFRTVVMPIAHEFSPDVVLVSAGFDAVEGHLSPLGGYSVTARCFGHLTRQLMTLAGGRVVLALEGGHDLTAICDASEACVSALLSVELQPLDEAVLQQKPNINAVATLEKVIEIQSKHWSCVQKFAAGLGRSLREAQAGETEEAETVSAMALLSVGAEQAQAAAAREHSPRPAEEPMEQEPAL

Structure (SMILES)	IC50 [1] [nM]	IC50 [2] [nM]	IC50 [3] [nM]	IC50 [4] [nM]	IC50 [5] [nM]
O=C(c1ccc(N(Cc2ccc(-c3noc(C(F)(F)F)n3)s2)c2cnccn2)nn1)N1C[C@@H]2C[C@H]1C[S@@+]2[O-] [Example FR, (1S,2R,4S)-5-{6-[(Pyrazin-2-yl)({5-[5-(trifluoromethyl)-1,2,4-oxadiazol-3-yl]thiophen-2-yl}methyl)amino]pyridazine-3-carbonyl}-2-thia-5-azabicyclo[2.2.1]heptan-2-ium-2-olate]	≤ 500	≤ 500	≤ 10000	> 10000	> 10000
CC(C)OC1CN(C(=O)c2cnnc(N(Cc3ccc(-c4noc(C(F)(F)F)n4)s3)c3cnccn3)c2)C1 [Example GC, 5-[3-(Propan-2-yloxy)azetidine-1-carbonyl]-N-(pyrazin-2-yl)-N-({5-[5-(trifluoromethyl)-1,2,4-oxadiazol-3-yl]thiophen-2-yl}methyl)pyridazin-3-amine]	≤ 500	≤ 500	> 10000	> 10000	> 10000
COC1CN(Cc2ccnc(N(Cc3ccc(-c4noc(C(F)(F)F)n4)s3)c3cnccn3)c2)C1 [Example GH, N-{4-[(3-Methoxyazetidin-1-yl)methyl]pyridin-2-yl}-N-({5-[5-(trifluoromethyl)-1,2,4-oxadiazol-3-yl]thiophen-2-yl}methyl)pyrazin-2-amine]	≤ 1000	≤ 10000	> 10000	> 10000	> 10000
O=C(c1ccc(N(Cc2ccc(-c3noc(C(F)(F)F)n3)s2)c2cnccn2)nn1)N1CCC1 [Example FF, 6-(Azetidine-1-carbonyl)-N-(pyrazin-2-yl)-N-({5-[5-(trifluoromethyl)-1,2,4-oxadiazol-3-yl]thiophen-2-yl}methyl)pyridazin-3-amine]	≤ 500	≤ 500	≤ 10000	> 10000	> 10000
FC(F)(F)c1nc(-c2ccc(CN(c3cnccn3)c3cc(CN4CCCC4)ccn3)s2)no1 [Example GG, N-{4-[(Pyrrolidin-1-yl)methyl]pyridin-2-yl}-N-({5-[5-(trifluoromethyl)-1,2,4-oxadiazol-3-yl]thiophen-2-yl}methyl)pyrazin-2-amine]	≤ 1000	≤ 1000	> 10000	> 10000	> 10000
O=C(c1cnnc(N(Cc2ccc(-c3noc(C(F)(F)F)n3)s2)c2cnccn2)c1)N1CCCC1 [Example EA, N-(Pyrazin-2-yl)-5-(pyrrolidine-1-carbonyl)-N-({5-[5-(trifluoromethyl)-1,2,4-oxadiazol-3-yl]thiophen-2-yl}methyl)pyridazin-3-amine]	≤ 1000	≤ 10000	≤ 10000	> 10000	> 10000
O=C(c1cnnc(N(Cc2ccc(-c3noc(C(F)(F)F)n3)s2)c2cnccn2)c1)N1CCS(=O)(=O)CC1 [Example ED, 4-{6-[(Pyrazin-2-yl)({5-[5-(trifluoromethyl)-1,2,4-oxadiazol-3-yl]thiophen-2-yl}methyl)amino]pyridazine-4-carbonyl}-1λ^6-thiomorpholine-1,1-dione]	≤ 1000	≤ 10000	> 10000	> 10000	> 10000
OC1(c2cnnc(N(Cc3ccc(-c4noc(C(F)(F)F)n4)s3)c3cnccn3)c2)COC1 [Example GW, 3-{6-[(Pyrazin-2-yl)({5-[5-(trifluoromethyl)-1,2,4-oxadiazol-3-yl]thiophen-2-yl}methyl)amino]pyridazin-4-yl}oxetan-3-ol]	≤ 10000	≤ 1000	> 10000	> 10000	> 10000
FC(F)(F)c1nc(-c2ccc(CN(c3cnccn3)c3cnc(N4CCOCC4)cn3)s2)no1 [Example BM, 5-(Morpholin-4-yl)-N-(pyrazin-2-yl)-N-({5-[5-(trifluoromethyl)-1,2,4-oxadiazol-3-yl]thiophen-2-yl}methyl)pyrazin-2-amine]	≤ 1000	≤ 10000	≤ 10000	> 10000	> 10000
O=C(O)c1cnnc(N(Cc2ccc(-c3noc(C(F)(F)F)n3)s2)c2cc(C(F)(F)F)cnn2)c1 [Example ES, 6-[({5-[5-(Trifluoromethyl)-1,2,4-oxadiazol-3-yl]thiophen-2-yl}methyl)[5-(trifluoromethyl)pyridazin-3-yl]amino]pyridazine-4-carboxylicacid]	≤ 10000	≤ 10000	> 10000	> 10000	> 10000
FC(F)(F)c1cnnc(N(Cc2ccc(-c3noc(C(F)(F)F)n3)s2)c2cnccn2)c1 [Example EF, N-(Pyrazin-2-yl)-5-(trifluoromethyl)-N-({5-[5-(trifluoromethyl)-1,2,4-oxadiazol-3-yl]thiophen-2-yl}methyl)pyridazin-3-amine]	≤ 10000	≤ 10000	> 10000	> 10000	> 10000
FC(F)(F)c1nc(-c2ccc(CN(c3cnccn3)c3ccc(CN4CCOCC4)nn3)s2)no1 [Example FN, 6-[(Morpholin-4-yl)methyl]-N-(pyrazin-2-yl)-N-({5-[5-(trifluoromethyl)-1,2,4-oxadiazol-3-yl]thiophen-2-yl}methyl)pyridazin-3-amine]	≤ 1000	≤ 1000	> 10000	> 10000	> 10000
COc1nccnc1N(Cc1ccc(-c2noc(C(F)(F)F)n2)s1)c1cnccn1 [Example BF, 3-Methoxy-N-(pyrazin-2-yl)-N-({5-[5-(trifluoromethyl)-1,2,4-oxadiazol-3-yl]thiophen-2-yl}methyl)pyrazin-2-amine]	≤ 10000	≤ 10000	> 10000	> 10000	> 10000

Reference: patent US20210038607A1, “OXADIAZOLYLTHIOPHENE DERIVATIVES USEFUL AS HISTONE DEACETYLASE INHIBITORS” (Karus Therapeutics Limited, priority 2018, published 2021)
